Data taken from PubChem BioAssay AID248 (DTP/NCI, 2004).
Values joined by “and” are separate entries in the source; they are usually repeats but may differ in a detail not shown here. Equal values may be shown once. Inconclusive results and toxic doses are left out. Cut-off read from the data, not from the text of the source: active = T/C of 150% or more; inactive = T/C below 125%.

Tested on: L1210 leukemia ip in BDF1 mice, survival T/C
Test: NCI In Vivo Anticancer Drug Screen. Data for tumor model L1210 Leukemia (intraperitoneal) in B6D2F1 (BDF1) mice
Details: endpoint: mean survival time, higher = longer survival
Summary of the method: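 Each compound was tested against a transplantable tumor grown in mice. The endpoint was survival, with treated animals benchmarked against vehicle controls as a simple ratio.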

[1] = dose: 100.0 mg/kg/injection, schedule: Q01DX009 (ip), vehicle: Klucel (hydroxypropylcellulose) (HPC)
[2] = dose: 100.0 mg/kg/injection, schedule: Q04DX003 (ip), vehicle: Klucel (hydroxypropylcellulose) (HPC)
[3] = dose: 200.0 mg/kg/injection, schedule: Q01DX009 (ip), vehicle: Klucel (hydroxypropylcellulose) (HPC)
[4] = dose: 200.0 mg/kg/injection, schedule: Q04DX003 (ip), vehicle: Klucel (hydroxypropylcellulose) (HPC)
[5] = dose: 400.0 mg/kg/injection, schedule: Q04DX003 (ip), vehicle: Klucel (hydroxypropylcellulose) (HPC)
[6] = dose: 100.0 mg/kg/injection, schedule: Q01DX001 (ip), vehicle: carboxymethylcellulose (CMC)
[7] = dose: 400.0 mg/kg/injection, schedule: Q01DX009 (ip), vehicle: Klucel (hydroxypropylcellulose) (HPC)

Measured: T/C

c1ccc(-c2c(-c3ccc4c(c3)CCCC4)c(-c3ccccc3)c3c(c2-c2ccccc2)-c2cccc4cccc-3c24)cc1
inactive: dose: 100.0 mg/kg/injection, schedule: Q01DX001 (ip), vehicle: saline with Tween-80 87 % of control | dose: 200.0 mg/kg/injection, schedule: Q01DX001 (ip), vehicle: saline with Tween-80 87 % of control | dose: 400.0 mg/kg/injection, schedule: Q01DX001 (ip), vehicle: saline with Tween-80 100 % of control

[O-][n+]1c(CCl)nc2cccc3c2c1-c1ccccc1-3
inactive: dose: 25.0 mg/kg/injection, schedule: Q01DX009 (ip), vehicle: saline with Tween-80 108 % of control | dose: 50.0 mg/kg/injection, schedule: Q01DX009 (ip), vehicle: saline with Tween-80 110 % of control | dose: 50.0 mg/kg/injection, schedule: Q04DX003 (ip), vehicle: saline with Tween-80 102 % of control | dose: 100.0 mg/kg/injection, schedule: Q01DX009 (ip), vehicle: saline with Tween-80 104 % of control | dose: 100.0 mg/kg/injection, schedule: Q04DX003 (ip), vehicle: saline with Tween-80 107 % of control

Cc1cc(N=Nc2ccc(N(C)C)cc2)cc(C)[n+]1[O-]
inactive: [1] 104 % of control | [2] 100 % of control | [3] 98 % of control | [4] 95 % of control | [5] 88 % of control

O=C(Nc1cccc([N+](=O)[O-])c1)c1ccc(Cl)cc1
inactive: dose: 100.0 mg/kg/injection, schedule: Q04DX003 (ip), vehicle: gum acacia 101 % of control | dose: 200.0 mg/kg/injection, schedule: Q04DX003 (ip), vehicle: gum acacia 95 % of control | dose: 400.0 mg/kg/injection, schedule: Q04DX003 (ip), vehicle: gum acacia 101 % of control

CCCCCCC(=O)OCCN1CCN(CC/C=C2\c3ccccc3Sc3ccc(C(F)(F)F)cc32)CC1
inactive: dose: 50.0 mg/kg/injection, schedule: Q01DX001 (ip), vehicle: carboxymethylcellulose (CMC) 94 % of control | dose: 50.0 mg/kg/injection, schedule: Q01DX009 (ip), vehicle: saline 123 % of control | [6] 92 % of control | dose: 100.0 mg/kg/injection, schedule: Q01DX009 (ip), vehicle: saline 108 % of control | dose: 132.0 mg/kg/injection, schedule: Q04DX003 (ip), vehicle: saline 103 % of control | dose: 200.0 mg/kg/injection, schedule: Q01DX001 (ip), vehicle: carboxymethylcellulose (CMC) 94 % of control | dose: 200.0 mg/kg/injection, schedule: Q04DX003 (ip), vehicle: saline 110 % of control | dose: 400.0 mg/kg/injection, schedule: Q01DX001 (ip), vehicle: carboxymethylcellulose (CMC) 94 % of control

CCOc1ccccc1NC(=O)Nc1ccccc1OC
inactive: [1] 103 % of control | [2] 103 % of control | [3] 98 % of control | [4] 96 % of control | [7] 98 % of control | [5] 100 % of control

O=C(Nc1cccc(C(F)(F)F)c1)OCCOc1ccc(Br)cc1
inactive: [1] 98 % of control | [3] 96 % of control | [7] 92 % of control

OCC1OC(n2cnc3c(SCc4ccccc4)nc(Cl)cc32)C(O)C1O (stereo not given)
inactive: dose: 100.0 mg/kg/injection, schedule: Q01DX005 (ip), vehicle: saline 95 % of control | dose: 200.0 mg/kg/injection, schedule: Q01DX005 (ip), vehicle: saline 93 % of control

CCc1ccc(NC(=O)N(CCCl)N=O)cc1
inactive: dose: 25.0 mg/kg/injection, schedule: Q04DX003 (ip), vehicle: Klucel (hydroxypropylcellulose) (HPC) 124 % of control | dose: 40.0 mg/kg/injection, schedule: Q01DX009 (ip), vehicle: Klucel (hydroxypropylcellulose) (HPC) 88 % of control | [6] 101 % of control | [4] 105 % of control
active: dose: 10.0 mg/kg/injection, schedule: Q01DX009 (ip), vehicle: Klucel (hydroxypropylcellulose) (HPC) 168 % of control and 175 % of control | dose: 20.0 mg/kg/injection, schedule: Q01DX009 (ip), vehicle: Klucel (hydroxypropylcellulose) (HPC) 157 % of control and 172 % of control | dose: 50.0 mg/kg/injection, schedule: Q04DX003 (ip), vehicle: Klucel (hydroxypropylcellulose) (HPC) 150 % of control and 159 % of control

O=[N+]([O-])c1cc(C(F)(F)F)cc([N+](=O)[O-])c1NN=C1CCCCC1
inactive: dose: 100.0 mg/kg/injection, schedule: Q01DX009 (ip), vehicle: gum acacia 93 % of control | dose: 200.0 mg/kg/injection, schedule: Q01DX009 (ip), vehicle: gum acacia 91 % of control | dose: 400.0 mg/kg/injection, schedule: Q01DX009 (ip), vehicle: gum acacia 96 % of control
